Source: the supplement of paper PMC10307832

Columns and labels:
Experiment in all cases: relative viability (nuclei count vs DMSO), 5 days (fraction); higher = more cells survive
[1] = compound: CC(C)(C)c1cc(NC(=O)Nc2ccc(-c3cn4c(n3)sc3cc(OCCN5CCOCC5)ccc34)cc2)no1 [Quizartinib] + Cc1nc(NC(=O)N2CCC[C@H]2C(N)=O)sc1-c1ccnc(C(C)(C)C(F)(F)F)c1 [Alpelisib] (partner 2 µM)
Outline: (§1)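 Cells from lung cancer lines were seeded into 1536-well plates and, one day later, dosed by pin tool. Treatments were either a single drug or a fixed dose of an anchor drug with five library-drug doses (not always all listed) in √10 steps. After 5 days, nuclei were stained in a one-step fixation (final 0.05% Triton X-100, 1% formaldehyde, 1 ug/ml Hoechst) and counted on 4× images, and relative viability is the treated-to-vehicle nuclei ratio, as the median of duplicate plates.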

[2] = compound: COCC[n+]1c2c(n(Cc3cnccn3)c1C)C(=O)c1ccccc1C2=O [YM155] + CC(=O)c1c(C)c2cnc(Nc3ccc(N4CCNCC4)cn3)nc2n(C2CCCC2)c1=O [Palbociclib] (partner 0.5 µM)
Outline: as §1

[3] = compound: COCC[n+]1c2c(n(Cc3cnccn3)c1C)C(=O)c1ccccc1C2=O [YM155] + CC(C)C[C@H](NC(=O)[C@H](Cc1ccccc1)NC(=O)c1cnccn1)B(O)O [Bortezomib] (partner 0.002 µM)
Outline: as §1

[4] = compound: COCC[n+]1c2c(n(Cc3cnccn3)c1C)C(=O)c1ccccc1C2=O [YM155] + NC(=O)Nc1cc(-c2cccc(F)c2)sc1C(=O)N[C@H]1CCCNC1 [AZD7762] (partner 0.2 µM)
Outline: as §1

NCI-H3122
relative viability ([1]; first compound 0.001 µM): 0.567
relative viability ([1]; first compound 0.003162 µM): 0.693
relative viability ([1]; first compound 0.01 µM): 1.01
relative viability ([1]; first compound 0.03162 µM): 0.831
relative viability ([1]; first compound 0.1 µM): 0.651
relative viability ([2]; first compound 0.002 µM): 0.184
relative viability ([2]; first compound 0.006325 µM): 0.178
relative viability ([2]; first compound 0.02 µM): 0.218
relative viability ([2]; first compound 0.06325 µM): 0.171
relative viability ([3]; first compound 0.002 µM): 1
relative viability ([3]; first compound 0.006325 µM): 1.01
relative viability ([3]; first compound 0.02 µM): 1.05
relative viability ([3]; first compound 0.06325 µM): 0.973
relative viability ([4]; first compound 0.002 µM): 1.02
relative viability ([4]; first compound 0.006325 µM): 1.03
relative viability ([4]; first compound 0.02 µM): 0.974
relative viability ([4]; first compound 0.06325 µM): 0.971

NCI-H1563
relative viability ([1]; first compound 0.001 µM): 0.893
relative viability ([1]; first compound 0.003162 µM): 0.871
relative viability ([1]; first compound 0.01 µM): 0.945
relative viability ([1]; first compound 0.1 µM): 0.826
relative viability ([3]; first compound 0.002 µM): 0.974
relative viability ([3]; first compound 0.006325 µM): 0.926
relative viability ([3]; first compound 0.02 µM): 0.907
relative viability ([3]; first compound 0.06325 µM): 0.989

HCC-78
relative viability ([1]; first compound 0.001 µM): 0.343
relative viability ([1]; first compound 0.003162 µM): 0.33
relative viability ([1]; first compound 0.01 µM): 0.393
relative viability ([1]; first compound 0.03162 µM): 0.315
relative viability ([1]; first compound 0.1 µM): 0.342
relative viability ([2]; first compound 0.002 µM): 0.395
relative viability ([2]; first compound 0.006325 µM): 0.43
relative viability ([2]; first compound 0.02 µM): 0.483
relative viability ([2]; first compound 0.06325 µM): 0.504
relative viability ([3]; first compound 0.002 µM): 0.536
relative viability ([3]; first compound 0.006325 µM): 0.569
relative viability ([3]; first compound 0.02 µM): 0.552
relative viability ([3]; first compound 0.06325 µM): 0.656
relative viability ([4]; first compound 0.002 µM): 0.612
relative viability ([4]; first compound 0.006325 µM): 0.779
relative viability ([4]; first compound 0.02 µM): 0.755
relative viability ([4]; first compound 0.06325 µM): 0.629

LK-2
relative viability ([1]; first compound 0.001 µM): 1.14
relative viability ([1]; first compound 0.003162 µM): 1.08
relative viability ([1]; first compound 0.01 µM): 1.04
relative viability ([1]; first compound 0.03162 µM): 1.03
relative viability ([1]; first compound 0.1 µM): 1.06
relative viability ([2]; first compound 0.002 µM): 0.851
relative viability ([2]; first compound 0.006325 µM): 0.655
relative viability ([2]; first compound 0.02 µM): 0.632
relative viability ([2]; first compound 0.06325 µM): 0.78
relative viability ([4]; first compound 0.002 µM): 0.445
relative viability ([4]; first compound 0.006325 µM): 0.305
relative viability ([4]; first compound 0.02 µM): 0.494
relative viability ([4]; first compound 0.06325 µM): 0.438

NCI-H1944
relative viability ([1]; first compound 0.001 µM): 0.691
relative viability ([1]; first compound 0.003162 µM): 0.826
relative viability ([1]; first compound 0.01 µM): 0.898
relative viability ([1]; first compound 0.03162 µM): 0.89
relative viability ([1]; first compound 0.1 µM): 0.805
relative viability ([2]; first compound 0.002 µM): 0.337
relative viability ([2]; first compound 0.006325 µM): 0.296
relative viability ([2]; first compound 0.02 µM): 0.328
relative viability ([2]; first compound 0.06325 µM): 0.325
relative viability ([4]; first compound 0.002 µM): 0.619
relative viability ([4]; first compound 0.006325 µM): 0.414
relative viability ([4]; first compound 0.02 µM): 0.531
relative viability ([4]; first compound 0.06325 µM): 0.58

ChaGo-K-1
relative viability ([2]; first compound 0.002 µM): 0.951
relative viability ([2]; first compound 0.006325 µM): 0.909
relative viability ([2]; first compound 0.02 µM): 0.881
relative viability ([2]; first compound 0.06325 µM): 0.918
relative viability ([3]; first compound 0.002 µM): 1.02
relative viability ([3]; first compound 0.006325 µM): 1.01
relative viability ([3]; first compound 0.02 µM): 0.927
relative viability ([3]; first compound 0.06325 µM): 0.956
relative viability ([4]; first compound 0.002 µM): 0.847
relative viability ([4]; first compound 0.006325 µM): 0.822
relative viability ([4]; first compound 0.02 µM): 0.915
relative viability ([4]; first compound 0.06325 µM): 0.821

EBC-1
relative viability ([1]; first compound 0.001 µM): 0.664
relative viability ([1]; first compound 0.003162 µM): 0.708
relative viability ([1]; first compound 0.01 µM): 0.89
relative viability ([1]; first compound 0.03162 µM): 0.915
relative viability ([1]; first compound 0.1 µM): 0.812
relative viability ([3]; first compound 0.002 µM): 0.613
relative viability ([3]; first compound 0.006325 µM): 0.458
relative viability ([3]; first compound 0.02 µM): 0.566
relative viability ([3]; first compound 0.06325 µM): 0.593

NCI-H522
relative viability ([2]; first compound 0.002 µM): 1.01
relative viability ([2]; first compound 0.006325 µM): 1.01
relative viability ([2]; first compound 0.02 µM): 1.18
relative viability ([2]; first compound 0.06325 µM): 1.06
relative viability ([4]; first compound 0.002 µM): 0.699
relative viability ([4]; first compound 0.006325 µM): 0.854
relative viability ([4]; first compound 0.02 µM): 0.961
relative viability ([4]; first compound 0.06325 µM): 0.991

NCI-H1703
relative viability ([1]; first compound 0.001 µM): 0.34
relative viability ([1]; first compound 0.003162 µM): 0.196
relative viability ([1]; first compound 0.01 µM): 0.209
relative viability ([1]; first compound 0.03162 µM): 0.182
relative viability ([1]; first compound 0.1 µM): 0.22
relative viability ([3]; first compound 0.002 µM): 0.283
relative viability ([3]; first compound 0.006325 µM): 0.323
relative viability ([3]; first compound 0.02 µM): 0.322
relative viability ([3]; first compound 0.06325 µM): 0.198
relative viability ([4]; first compound 0.002 µM): 0.0937
relative viability ([4]; first compound 0.006325 µM): 0.114
relative viability ([4]; first compound 0.02 µM): 0.138
relative viability ([4]; first compound 0.06325 µM): 0.132

NCI-H2342
relative viability ([2]; first compound 0.002 µM): 0.515
relative viability ([2]; first compound 0.006325 µM): 0.496
relative viability ([2]; first compound 0.02 µM): 0.475
relative viability ([2]; first compound 0.06325 µM): 0.54
relative viability ([4]; first compound 0.002 µM): 0.612
relative viability ([4]; first compound 0.006325 µM): 0.379
relative viability ([4]; first compound 0.02 µM): 0.515
relative viability ([4]; first compound 0.06325 µM): 0.383

SW 1573
relative viability ([1]; first compound 0.001 µM): 0.779
relative viability ([1]; first compound 0.003162 µM): 0.728
relative viability ([1]; first compound 0.01 µM): 0.836
relative viability ([1]; first compound 0.03162 µM): 0.686
relative viability ([1]; first compound 0.1 µM): 0.793
relative viability ([2]; first compound 0.002 µM): 0.415
relative viability ([2]; first compound 0.006325 µM): 0.314
relative viability ([2]; first compound 0.02 µM): 0.126
relative viability ([2]; first compound 0.06325 µM): 0.0609
relative viability ([3]; first compound 0.002 µM): 0.95
relative viability ([3]; first compound 0.006325 µM): 0.946
relative viability ([3]; first compound 0.02 µM): 0.954
relative viability ([3]; first compound 0.06325 µM): 0.568

A549
relative viability ([1]; first compound 0.001 µM): 0.661
relative viability ([1]; first compound 0.003162 µM): 0.763
relative viability ([1]; first compound 0.01 µM): 0.849
relative viability ([1]; first compound 0.1 µM): 0.833

SK-MES-1
relative viability ([1]; first compound 0.001 µM): 0.838
relative viability ([1]; first compound 0.003162 µM): 0.424
relative viability ([1]; first compound 0.01 µM): 1.06
relative viability ([1]; first compound 0.03162 µM): 0.865
relative viability ([1]; first compound 0.1 µM): 0.97
relative viability ([2]; first compound 0.002 µM): 0.312
relative viability ([2]; first compound 0.006325 µM): 0.357
relative viability ([2]; first compound 0.02 µM): 0.225
relative viability ([2]; first compound 0.06325 µM): 0.191

NCI-H358
relative viability ([1]; first compound 0.001 µM): 0.693
relative viability ([1]; first compound 0.003162 µM): 0.89
relative viability ([1]; first compound 0.01 µM): 0.815
relative viability ([1]; first compound 0.1 µM): 0.753
relative viability ([2]; first compound 0.002 µM): 0.129
relative viability ([2]; first compound 0.006325 µM): 0.129
relative viability ([2]; first compound 0.02 µM): 0.134
relative viability ([2]; first compound 0.06325 µM): 0.157
relative viability ([4]; first compound 0.006325 µM): 0.523
relative viability ([4]; first compound 0.02 µM): 0.437
relative viability ([4]; first compound 0.06325 µM): 0.281
